Measurements published in article PMC8837781, “Suppression of tumor metastasis by a RECK-activating small molecule” (Scientific Reports, 2022).

Experiments:
HDAC1 [1] = target: T1, HDAC1 (Homo sapiens, UniProt Q13547); experiment: HDAC1 inhibition assay (details not given); type: biochemical
HDAC3 [2] = target: T2, HDAC3 (Homo sapiens, UniProt O15379); experiment: HDAC3 inhibition assay (details not given); type: biochemical
HDAC1 [3] = target: T1, HDAC1; experiment: biochemical; parameters: HDAC inhibition assay, IC50; details: read-out: HDAC inhibition (HDAC1)
HDAC3 [4] = target: T2, HDAC3; experiment: biochemical; parameters: HDAC inhibition assay, IC50; details: read-out: HDAC inhibition (HDAC3)

T1 sequence (Q13547 whole entry): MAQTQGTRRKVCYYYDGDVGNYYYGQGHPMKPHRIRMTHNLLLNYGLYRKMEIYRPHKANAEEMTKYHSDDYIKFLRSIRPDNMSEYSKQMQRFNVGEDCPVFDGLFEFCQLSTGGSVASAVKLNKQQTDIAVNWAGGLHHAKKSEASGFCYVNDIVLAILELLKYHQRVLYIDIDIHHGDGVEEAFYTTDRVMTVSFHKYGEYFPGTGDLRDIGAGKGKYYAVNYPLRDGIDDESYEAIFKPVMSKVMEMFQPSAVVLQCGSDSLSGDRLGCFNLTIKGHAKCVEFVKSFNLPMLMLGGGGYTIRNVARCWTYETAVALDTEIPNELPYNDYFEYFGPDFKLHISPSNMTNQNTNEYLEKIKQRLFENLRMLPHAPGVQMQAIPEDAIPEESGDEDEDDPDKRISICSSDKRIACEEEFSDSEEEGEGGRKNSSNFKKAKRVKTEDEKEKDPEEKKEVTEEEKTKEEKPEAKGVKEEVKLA
T2 sequence (O15379 whole entry): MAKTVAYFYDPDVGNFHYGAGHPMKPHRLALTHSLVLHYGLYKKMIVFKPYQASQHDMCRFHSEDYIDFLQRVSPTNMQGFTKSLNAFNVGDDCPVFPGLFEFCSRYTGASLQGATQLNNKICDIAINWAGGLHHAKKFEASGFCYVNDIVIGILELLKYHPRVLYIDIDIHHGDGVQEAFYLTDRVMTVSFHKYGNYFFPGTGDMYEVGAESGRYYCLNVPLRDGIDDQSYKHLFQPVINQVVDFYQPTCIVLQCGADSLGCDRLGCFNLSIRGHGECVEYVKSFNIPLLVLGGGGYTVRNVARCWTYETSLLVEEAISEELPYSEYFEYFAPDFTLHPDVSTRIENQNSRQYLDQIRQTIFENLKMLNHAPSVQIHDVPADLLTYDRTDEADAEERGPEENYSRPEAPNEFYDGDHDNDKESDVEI

SMILES | IC50 (HDAC1 [1]) [µM] | IC50 (HDAC3 [2]) [µM] | IC50 (HDAC1 [3]) [µM] | IC50 (HDAC3 [4]) [µM]
Cc1ccc(C(=O)Nc2ccccc2N)cc1 [#638, DSK638] | ~5 | ~10 |  | 
Nc1ccccc1NC(=O)c1ccccc1 [NAPB] |  |  | 8 | 5
Cc1ccc(C(=O)Nc2ccccc2O)cc1 [NHPMB] |  |  | 3 | 3
Cc1ccc(C(=O)Nc2ccccc2)cc1 [NPMB] |  |  | > 100 | > 100
Cc1ccc(NC(=O)c2ccccc2N)cc1 [NTAB] |  |  | > 100 | > 100
